# Measurements published in patent US20250177333A1, “METHOD FOR TREATING RHEUMATOID ARTHRITIS (RA) USING AN ENZYME-AND SUBSTRATE SELECTIVE EXOSITE INHIBITOR OF A DISINTEGRIN AND METALLOPROTEASE 10 (ADAM10)” (Nova Southeastern University, priority 2022, published 2025).
# Experiments:
# [1] = system: collagen-induced arthritis model; assay: Collagen-induced arthritis (CIA) in vivo model; set-up: species or system rat
# Excerpt: FIG. 1 is a graph showing disease scores of rat collagen-induced arthritis model study of CID3117694. The disease score is used to assess severity of rheumatoid arthritis (RA) by measuring disease activity, functional impairment, and physical damage present. FIG. 2 is a graph showing paw swelling measurements of rat collagen-induced arthritis model study of CID3117694.* FIGS. 3A-F show micrographs of paw swelling observations of rat collagen-induced arthritis model study of CID3117694. […] The following scale was used: Score 0: normal: Score 1: one joint type (A, B or C) has redness and swelling: Score 2: Two joint types have redness and swelling: Score 3: all three joint types have redness and swelling; and Score 4: maximal redness and swelling of the entire paw leads to disappearance of anatomical definition. […] To test the efficacy of using ADAM10 inhibitor. CID3117694, for treatment of rheumatoid arthritis (RA), the instant inventor conducted a study using the […] Collagen-induced Arthritis (CIA) in vivo model. This model is a gold standard for RA pre-clinical studies of investigational drugs.
# ADAM17 [2] = target: T1, ADAM17 (Homo sapiens, UniProt P78536); conditions: cited from earlier work
# ADAM10 [3] = target: T2, ADAM10 (Homo sapiens, UniProt O14672); conditions: cited from earlier work
# T2 sequence (O14672 214-748): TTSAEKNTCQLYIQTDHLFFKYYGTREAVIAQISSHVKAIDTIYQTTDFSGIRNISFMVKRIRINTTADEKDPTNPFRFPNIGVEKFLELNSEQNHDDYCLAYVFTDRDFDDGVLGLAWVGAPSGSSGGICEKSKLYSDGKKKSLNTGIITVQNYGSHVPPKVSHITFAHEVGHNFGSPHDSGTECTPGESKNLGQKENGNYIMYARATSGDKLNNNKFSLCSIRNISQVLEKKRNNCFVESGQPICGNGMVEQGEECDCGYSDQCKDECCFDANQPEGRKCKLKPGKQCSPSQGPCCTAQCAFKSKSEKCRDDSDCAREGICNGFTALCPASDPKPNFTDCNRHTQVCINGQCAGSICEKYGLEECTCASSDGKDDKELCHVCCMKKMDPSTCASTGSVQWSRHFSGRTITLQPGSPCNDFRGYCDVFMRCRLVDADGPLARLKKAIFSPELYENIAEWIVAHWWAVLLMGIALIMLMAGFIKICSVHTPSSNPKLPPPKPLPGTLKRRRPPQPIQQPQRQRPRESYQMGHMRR
# ADAM10 [4] = target: T2, ADAM10; conditions: PubChem AID 743338; cited from earlier work
# CCL2-induced = assay: Cell-based inhibition of CCL2-induced migration of PBMC (responsible ADAM 10); conditions: Human, 10 μM tested
# Excerpt: (§1) The instant inventor has discovered a conceptually novel class of ADAM10 inhibitors acting via a non-zinc-binding inhibition mechanism.
# ADAM17 [5] = target: T1, ADAM17; assay: ADAM17 counter-screen, HTS campaign and profiling; assay type: biochemical
# Excerpt: (§2) An ADAM10 non-Zn-binding inhibition approach overcomes drawbacks of Zn-binders. As shown by global knockout studies. ADAM10 is vital for development, homeostasis and repair, which makes global inhibition of all functions of this enzyme non-feasible as a therapeutic approach. […] In previous research, the instant inventor conducted a HTS campaign to identify inhibitors of ADAM10 and ADAM17. […] This was verified by profiling studies. An exceptional HTS hit, however, is CID3117694 and related compounds (FIG. 7). While it contains highly polar functionality, these groups are not typical Zn binders, such as the hydroxamic acid groups highlighted in LT4, INCB8765, and GI254023X. […] This new class of selective ADAMI0 inhibitors acts via a non-Zn-binding mechanism and that potentially bind outside of an active site at the hitherto unknown secondary substrate binding site (exosite).
# muscarinic (CHRM1) = target: T3, muscarinic (CHRM1) (Homo sapiens, UniProt P11229); conditions: PubChem; cited from earlier work
# T3 sequence (P11229 1-460): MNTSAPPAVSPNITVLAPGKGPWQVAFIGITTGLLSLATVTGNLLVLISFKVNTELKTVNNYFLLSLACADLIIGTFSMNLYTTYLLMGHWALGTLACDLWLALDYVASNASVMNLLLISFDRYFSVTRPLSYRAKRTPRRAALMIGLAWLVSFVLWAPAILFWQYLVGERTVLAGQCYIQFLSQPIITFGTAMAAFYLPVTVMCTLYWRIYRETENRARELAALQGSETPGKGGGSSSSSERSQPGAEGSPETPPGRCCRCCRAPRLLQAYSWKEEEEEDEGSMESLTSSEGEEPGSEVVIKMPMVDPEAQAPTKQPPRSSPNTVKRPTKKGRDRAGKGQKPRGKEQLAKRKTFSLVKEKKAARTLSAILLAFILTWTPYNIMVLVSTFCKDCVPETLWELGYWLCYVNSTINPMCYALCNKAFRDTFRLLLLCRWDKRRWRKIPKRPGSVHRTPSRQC
# [6] = Toxicity in cell-based assays
# Excerpt: as §1
# ICOSL = assay: Cell-based inhibition of ICOSL shedding (responsible ADAM 10) in B cells; conditions: Mouse, 10 μM tested
# Excerpt: as §1
# ADAM10 [7] = target: T2, ADAM10; assay: ADAM10 inhibition, HTS campaign and profiling; assay type: biochemical
# Excerpt: as §2
# opioid receptors (OPRD1) = opioid receptors (OPRD1) (Homo sapiens, UniProt P41143); conditions: PubChem; cited from earlier work
# opioid receptors (OPRK1) = opioid receptors (OPRK1) (Homo sapiens, UniProt P41145); conditions: PubChem; cited from earlier work
# IL8-induced migration = assay: Cell-based inhibition of IL8-induced migration of neutrophils (responsible ADAM 10); conditions: Human, 10 μM tested
# Excerpt: as §1
# opioid receptors (OPRM1) = opioid receptors (OPRM1) (Homo sapiens, UniProt P35372); conditions: PubChem; cited from earlier work
# [8] = system: broader panel of Zn metalloproteases; assay: Profiling against broader panel of Zn metalloproteases; assay type: biochemical
# Excerpt: as §2
# adrenergic (ADRB2) = adrenergic (ADRB2) (Homo sapiens, UniProt P07550); conditions: PubChem; cited from earlier work
# [9] = PubChem database search; cited from earlier work
# CXCL16 = assay: Cell-based inhibition of CXCL16 shedding (responsible ADAM 10) in A549 cells; conditions: CXCL16, Human, 10 μM tested
# Excerpt: as §1
# T1 sequence (P78536 215-824, species assumed): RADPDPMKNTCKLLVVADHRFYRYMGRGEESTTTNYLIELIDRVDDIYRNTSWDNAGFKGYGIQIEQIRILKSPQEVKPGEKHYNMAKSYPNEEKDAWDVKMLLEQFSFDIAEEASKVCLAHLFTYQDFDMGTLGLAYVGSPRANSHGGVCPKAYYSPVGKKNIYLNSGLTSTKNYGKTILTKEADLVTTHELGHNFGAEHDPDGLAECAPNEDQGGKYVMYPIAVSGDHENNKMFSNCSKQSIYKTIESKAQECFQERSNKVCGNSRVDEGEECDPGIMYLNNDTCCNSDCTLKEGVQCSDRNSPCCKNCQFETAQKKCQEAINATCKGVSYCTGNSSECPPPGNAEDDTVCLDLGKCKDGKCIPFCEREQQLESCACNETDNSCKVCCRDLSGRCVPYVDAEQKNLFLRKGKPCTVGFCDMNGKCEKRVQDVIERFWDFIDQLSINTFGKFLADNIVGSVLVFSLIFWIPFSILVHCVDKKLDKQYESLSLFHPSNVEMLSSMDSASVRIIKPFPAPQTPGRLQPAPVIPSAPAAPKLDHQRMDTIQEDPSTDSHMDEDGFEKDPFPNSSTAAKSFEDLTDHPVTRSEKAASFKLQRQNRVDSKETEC
# Chain of opioid receptors (OPRM1) (P35372 whole entry, species assumed): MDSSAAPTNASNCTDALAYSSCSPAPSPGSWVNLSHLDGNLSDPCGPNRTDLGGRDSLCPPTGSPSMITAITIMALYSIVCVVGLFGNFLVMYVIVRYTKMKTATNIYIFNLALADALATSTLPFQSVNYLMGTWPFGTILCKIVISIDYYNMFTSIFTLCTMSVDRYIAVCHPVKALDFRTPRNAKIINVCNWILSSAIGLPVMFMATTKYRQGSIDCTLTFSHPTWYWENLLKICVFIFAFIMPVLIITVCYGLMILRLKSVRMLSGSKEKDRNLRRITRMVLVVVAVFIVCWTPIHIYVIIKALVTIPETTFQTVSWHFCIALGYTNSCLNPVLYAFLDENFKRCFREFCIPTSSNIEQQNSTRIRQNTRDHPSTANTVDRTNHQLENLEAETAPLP
# Chain of opioid receptors (OPRD1) (P41143 whole entry, species assumed): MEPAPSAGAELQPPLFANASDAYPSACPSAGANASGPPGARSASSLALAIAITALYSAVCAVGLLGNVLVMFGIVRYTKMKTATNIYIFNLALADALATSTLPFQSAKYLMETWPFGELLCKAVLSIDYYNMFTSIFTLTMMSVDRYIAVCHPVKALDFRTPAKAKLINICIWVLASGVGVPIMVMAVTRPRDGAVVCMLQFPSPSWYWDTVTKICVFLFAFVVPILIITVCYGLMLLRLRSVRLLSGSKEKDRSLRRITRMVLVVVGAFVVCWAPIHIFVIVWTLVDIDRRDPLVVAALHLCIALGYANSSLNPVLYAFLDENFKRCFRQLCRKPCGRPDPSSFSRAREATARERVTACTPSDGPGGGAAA
# Chain of adrenergic (ADRB2) (P07550 whole entry, species assumed): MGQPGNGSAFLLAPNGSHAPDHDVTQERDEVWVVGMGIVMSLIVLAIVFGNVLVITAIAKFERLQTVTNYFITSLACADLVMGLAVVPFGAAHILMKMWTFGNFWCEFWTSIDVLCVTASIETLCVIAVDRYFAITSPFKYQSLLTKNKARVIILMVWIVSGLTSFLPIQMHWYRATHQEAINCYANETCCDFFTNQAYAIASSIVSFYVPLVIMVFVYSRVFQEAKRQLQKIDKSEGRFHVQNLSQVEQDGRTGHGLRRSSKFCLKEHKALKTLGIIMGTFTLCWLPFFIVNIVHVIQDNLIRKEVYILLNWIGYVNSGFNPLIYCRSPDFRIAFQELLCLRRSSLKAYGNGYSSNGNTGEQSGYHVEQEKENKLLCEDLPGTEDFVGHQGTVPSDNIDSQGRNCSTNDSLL
# Chain of opioid receptors (OPRK1) (P41145 whole entry, species assumed): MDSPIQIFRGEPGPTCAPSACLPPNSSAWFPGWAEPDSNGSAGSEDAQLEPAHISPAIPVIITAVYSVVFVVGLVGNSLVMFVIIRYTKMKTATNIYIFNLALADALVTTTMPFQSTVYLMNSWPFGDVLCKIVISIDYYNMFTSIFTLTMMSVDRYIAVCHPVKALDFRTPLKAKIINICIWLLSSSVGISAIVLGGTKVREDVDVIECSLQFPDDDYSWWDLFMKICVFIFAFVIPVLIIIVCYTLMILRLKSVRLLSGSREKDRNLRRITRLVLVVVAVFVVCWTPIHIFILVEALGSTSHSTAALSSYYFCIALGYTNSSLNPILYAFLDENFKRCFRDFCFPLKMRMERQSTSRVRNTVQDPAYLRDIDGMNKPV
compound,measurement,setting,value
"COc1ccc2c(c1)c(CC(=O)O)c(C)n2C(=O)c1ccc(Cl)cc1 [Indomethacin, indomethacin, reference compound]",histopathology of right hind paws,"[1]; G3, CIA+Indomethacin 2.5 mg Kg",Normal Morphology of bone & cartilage of arthritis joint: Capital SI: Synovial inflammation: Capital H: Hyperplasia
CNC(=O)[C@@H](NC(=O)[C@H](CCCc1ccccc1)[C@H](C)N(O)C=O)C(C)(C)C [GI 254023X],IC50,ADAM17 [2],541 nM
same,IC50,ADAM10 [3],5.3 nM
O=C(NO)[C@H]1C[C@H](OC(=O)N2CCCC2)CC[C@@H]1C(=O)N1CCC(c2ccccc2)CC1 [INCB8765],IC50,ADAM17 [2],2040 nM
same,IC50,ADAM10 [3],97 nM
"COc1cccc(C(=O)NNC(=O)C(=O)Nc2ccc(C)c(Cl)c2)c1 [CID3117694, N-(3-chloro-4-methylphenyl)-2-[2-(3-methoxybenzoyl) hydrazinyl]-2-oxoacetamide]",activity in PubChem bioassay,ADAM10 [4],active
same,% Inhibition,CCL2-induced,50%
same,affinity for ADAM17,ADAM17 [5],negligible affinity
same,activity against CHRM1,muscarinic (CHRM1),inactive
same,toxicity in cell-based assays,[6],lack of toxicity
same,% Inhibition,ICOSL,95%
same,ADAM10 inhibitory potency,ADAM10 [7],micromolar-potent
same,activity against OPRD1,opioid receptors (OPRD1),inactive
same,activity against OPRK1,opioid receptors (OPRK1),inactive
same,% Inhibition,IL8-induced migration,100%
same,activity against OPRM1,opioid receptors (OPRM1),inactive
same,affinity for a broader panel of Zn metalloproteases,[8],negligible affinity
same,activity against ADRB2,adrenergic (ADRB2),inactive
same,biological activity across PubChem bioassays,[9],inactive in 524 bioassays and active only against 3 targets
same,% Inhibition,CXCL16,80%
same,RA disease score,[1]; FIG. 1,dose-dependently lowers
same,paw swelling,"[1]; FIG. 2 measurement, FIGS. 3A-F observation",dose-dependently lowers
same,serum levels of RA biomarker C-reactive protein,[1]; FIG. 4,dose-dependently decreases
same,serum levels of RA biomarker Interleukin-6 (IL-6),[1]; FIG. 5,dose-dependently decreases
same,serum levels of RA biomarker Interleukin-10 (IL-10),[1]; FIG. 6,dose-dependently decreases
same,histopathology of right hind paws,"[1]; G4, CIA+Test Comp 10 mg Kg",Synovial inflammation: Capital H: Hyperplasia: Capital P: Pannus Formation: Capital IEJ: Inflamed & eroded joint
same,histopathology of right hind paws,"[1]; G5, CIA+Test Comp 30 mg Kg",Synovial inflammation: Capital H: Hyperplasia
same,histopathology of right hind paws,"[1]; G6, CIA+Test Comp 50 mg Kg",Normal healthy bone & cartilage of arthritis joint: Capital H: Hyperplasia. Capital SI: Synovial inflammation
